Here are results for 1 molecule from ChEMBL document CHEMBL6078684, “Discovery of a Novel Non-invasive AR PROTAC Degrader for the Topical Treatment of Androgenetic Alopecia” (J Med Chem, 2024).

Series [1] in a line: Ratio of drug concentration in male ICR mouse skin to liver at 4 mg/ml, TOP measured after 0.5 hrs by LC-MS/MS analysis. It counts as ADME, tissue-based. The conditions noted are these: in vivo, topical_or_ocular.
Series [2] can be described thus: Ratio of drug concentration in male ICR mouse skin to lungs at 4 mg/ml, TOP measured after 4 hrs by LC-MS/MS analysis. The conditions noted are these: in vivo, topical_or_ocular. It counts as ADME, tissue-based, Skin/Lung.
Series [3] deals with T1, Protein cereblon/Androgen receptor (Homo sapiens, UniProt P10275+Q96SW2). The series can be described thus: PROTAC activity at CRBN/AR in human dermal papilla cell assessed as induction of AR degradation measured after 24 hrs by Western blot analysis. It counts as cell-based.
Target sequence in this assay (P10275 whole entry): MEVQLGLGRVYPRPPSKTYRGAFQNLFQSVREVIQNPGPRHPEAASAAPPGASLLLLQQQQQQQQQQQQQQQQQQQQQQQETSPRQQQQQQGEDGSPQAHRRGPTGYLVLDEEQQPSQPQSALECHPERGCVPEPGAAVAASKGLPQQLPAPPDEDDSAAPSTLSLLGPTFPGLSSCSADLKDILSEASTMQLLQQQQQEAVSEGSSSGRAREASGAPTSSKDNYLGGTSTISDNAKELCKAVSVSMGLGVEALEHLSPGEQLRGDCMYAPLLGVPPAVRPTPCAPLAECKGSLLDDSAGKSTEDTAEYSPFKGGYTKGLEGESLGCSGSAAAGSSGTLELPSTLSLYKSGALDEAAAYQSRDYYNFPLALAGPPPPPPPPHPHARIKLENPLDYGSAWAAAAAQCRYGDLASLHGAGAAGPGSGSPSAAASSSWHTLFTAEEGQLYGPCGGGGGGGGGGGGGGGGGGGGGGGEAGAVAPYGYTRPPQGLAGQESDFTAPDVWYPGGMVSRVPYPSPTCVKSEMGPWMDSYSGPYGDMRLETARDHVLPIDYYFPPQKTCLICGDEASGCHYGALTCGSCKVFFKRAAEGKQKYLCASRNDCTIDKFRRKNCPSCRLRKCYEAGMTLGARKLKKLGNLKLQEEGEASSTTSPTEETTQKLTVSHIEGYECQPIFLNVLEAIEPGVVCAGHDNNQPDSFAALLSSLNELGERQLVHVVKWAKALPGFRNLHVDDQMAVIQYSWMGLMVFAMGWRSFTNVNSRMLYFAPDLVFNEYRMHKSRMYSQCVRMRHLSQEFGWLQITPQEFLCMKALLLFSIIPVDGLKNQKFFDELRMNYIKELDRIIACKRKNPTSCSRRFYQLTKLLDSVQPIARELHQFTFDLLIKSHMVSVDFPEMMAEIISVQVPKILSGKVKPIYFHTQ
Target sequence in this assay (Q96SW2 whole entry): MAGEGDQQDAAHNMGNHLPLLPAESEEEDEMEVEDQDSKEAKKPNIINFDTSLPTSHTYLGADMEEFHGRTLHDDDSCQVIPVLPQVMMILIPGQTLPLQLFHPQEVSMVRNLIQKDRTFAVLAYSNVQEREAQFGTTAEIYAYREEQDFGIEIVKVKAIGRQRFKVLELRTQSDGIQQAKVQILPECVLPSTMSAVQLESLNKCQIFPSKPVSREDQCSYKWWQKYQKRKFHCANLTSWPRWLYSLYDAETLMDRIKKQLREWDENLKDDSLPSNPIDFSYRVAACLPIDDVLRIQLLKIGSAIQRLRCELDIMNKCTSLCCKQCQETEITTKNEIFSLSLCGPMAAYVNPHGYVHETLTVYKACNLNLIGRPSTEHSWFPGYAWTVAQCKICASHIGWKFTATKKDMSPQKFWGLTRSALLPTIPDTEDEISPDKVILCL
A short description of series [4]: Ratio of drug concentration in male ICR mouse skin to kidney at 4 mg/ml, TOP measured after 8 hrs by LC-MS/MS analysis. It counts as ADME, tissue-based. The conditions noted are these: in vivo, topical_or_ocular.
Series [5] deals with T1, Protein cereblon/Androgen receptor. The series can be described thus: PROTAC activity at CRBN/AR in human dermal papilla cells assessed as decrease in AR protein level at 1 uM preincubated with testosterone for 24 hrs followed by compound addition and measured after 48 hrs by Western blot analysis. It counts as cell-based. Conditions: Human dermal papilla cell.
Target sequence in this assay (P10275 whole entry, looked up): as the sequence (P10275 whole entry) above
Target sequence in this assay (Q96SW2 whole entry, looked up): as the sequence (Q96SW2 whole entry) above
Series [6] in a line: Drug uptake in male Sprague-Dawley rat Dorsal skin assessed as retention rat at 1 mg/ml, TOP measured after 30 mins by LC-MS/MS analysis. Conditions: in vivo, topical_or_ocular, 0.5 h. It counts as ADME, tissue-based, Zone of skin.
Series [7] is described as follows: Ratio of drug concentration in male ICR mouse skin to heart at 4 mg/ml, TOP measured after 4 hrs by LC-MS/MS analysis. It counts as ADME, tissue-based. Conditions: in vivo, topical_or_ocular.
Series [8] deals with T1, Protein cereblon/Androgen receptor. The series can be described thus: PROTAC activity at CRBN/AR in human dermal papilla cell assessed as induction of AR degradation by measuring maximal efficacy after 24 hrs by Western blot analysis relative to control. It counts as cell-based.
Target sequence in this assay (P10275 whole entry, looked up): as the sequence (P10275 whole entry) above
Target sequence in this assay (Q96SW2 whole entry, looked up): as the sequence (Q96SW2 whole entry) above
For series [9] the target is unchanged. Kind of series: PROTAC activity at CRBN/AR in human dermal papilla cells assessed as inhibition of TGF-beta1 release by measuring fold change in TGF-beta1 concentration at 1 uM preincubated with testosterone for 24 hrs followed by compound addition and measured after 48 hrs by ELISA relative to enzalutamide. It counts as cell-based. The conditions noted are these: Human dermal papilla cell.
Target sequence in this assay (P10275 whole entry, looked up): as the sequence (P10275 whole entry) above
Target sequence in this assay (Q96SW2 whole entry, looked up): as the sequence (Q96SW2 whole entry) above

A short description of series [10]: Ratio of drug concentration in male ICR mouse skin to lungs at 4 mg/ml, TOP measured after 1 hrs by LC-MS/MS analysis. It counts as ADME, tissue-based, Skin/Lung. The conditions noted are these: in vivo, topical_or_ocular.
The subject of series [11] is Mus musculus. Kind of series: Hair regeneration efficacy in testosterone induced male C57BL/6 mouse androgenetic alopecia model at 0.4 %, TOP administered once daily for 14 days and measured after 21 days with co-administration of 0.2% testosterone for 28 days relative to minoxidil by photographic analysis. Conditions: time 14 day. It counts as functional.
Series [12] concerns the target T1, Protein cereblon/Androgen receptor. The series can be described thus: PROTAC activity at CRBN/AR in human dermal papilla cells assessed as induction of AR degradation at 500 nM in presence of MLN4924 by Western blot analysis. It counts as cell-based. Conditions: Human dermal papilla cell.
Target sequence in this assay (P10275 whole entry, looked up): as the sequence (P10275 whole entry) above
Target sequence in this assay (Q96SW2 whole entry, looked up): as the sequence (Q96SW2 whole entry) above
Series [13] in a line: Ratio of drug concentration in male ICR mouse skin to liver at 4 mg/ml, TOP measured after 12 hrs by LC-MS/MS analysis. Conditions: in vivo, topical_or_ocular. It counts as ADME, tissue-based.
Series [14] is described as follows: Ratio of drug concentration in male ICR mouse skin to heart at 4 mg/ml, TOP measured after 0.25 hrs by LC-MS/MS analysis. It counts as ADME, tissue-based. Conditions: in vivo, topical_or_ocular.
Series [15] relates to Mus musculus. The series can be described thus: Hair regeneration efficacy in testosterone induced male C57BL/6 mouse androgenetic alopecia model at 0.1 to 0.4 %, TOP administered once daily for 14 days and measured after 21 days with co-administration of 0.2% testosterone for 28 days by photographic analysis. The conditions noted are these: dose 0.1-0.4 %, time 14.0 day. It counts as functional, organism-based.

Series [16] can be described thus: Ratio of drug concentration in male ICR mouse skin to spleen at 4 mg/ml, TOP measured after 8 hrs by LC-MS/MS analysis. It counts as ADME, tissue-based. The conditions noted are these: in vivo, topical_or_ocular.
In series [17] the target is T1, Protein cereblon/Androgen receptor. The series can be described thus: PROTAC activity at CRBN/AR in human dermal papilla cells assessed as inhibition of TGF-beta1 release by measuring fold change in TGF-beta1 concentration at 1 uM preincubated with testosterone for 24 hrs followed by compound addition and measured after 48 hrs by ELISA relative to minoxidil. The conditions noted are these: Human dermal papilla cell. It counts as cell-based.
Target sequence in this assay (P10275 whole entry, looked up): as the sequence (P10275 whole entry) above
Target sequence in this assay (Q96SW2 whole entry, looked up): as the sequence (Q96SW2 whole entry) above

For series [18] the target is unchanged. Kind of series: PROTAC activity at CRBN/AR in human dermal papilla cell assessed as induction of AR degradation at 500 nM by Western blot analysis. It counts as cell-based. Conditions: time 2-24 hrs.
Target sequence in this assay (P10275 whole entry, looked up): as the sequence (P10275 whole entry) above
Target sequence in this assay (Q96SW2 whole entry, looked up): as the sequence (Q96SW2 whole entry) above
Series [19] in a line: Ratio of drug concentration in male ICR mouse skin to spleen at 4 mg/ml, TOP measured after 2 hrs by LC-MS/MS analysis. It counts as ADME, tissue-based. The conditions noted are these: in vivo, topical_or_ocular.

Each structure is given as a SMILES string. Activity calls are given as the source filed them. The rule behind the calls is not given here.

Turning to `N#Cc1ccc(O[C@H]2CC[C@H](NC(=O)c3ccc(C4CCN(CC5CCCN(c6ccc(C(=O)NC7CCC(=O)NC7=O)cc6)C5)CC4)cc3)CC2)cc1Cl` (some centres undefined), the Ratio in [1] was 465.04; in series [2], 238.43; in series [4] it was 191.71; in [7], 403.09; in series [10] it was 476.62; in series [13], 173.24. Further, the Ratio is reported as 333.81 in series [14], 347.97 in [16] and 450.95 in [19]. For the same molecule, in [3], the DC50 was 262 nM. Moreover, the Activity entry is “Active; Most Pronounced Degradation Observed” in series [5], 100% in the series on Mus musculus [11], “Not active; Compound Activity Dependent On Ubiquitin-Proteosome System” in series [12] and “Time-dependent-effect” in [18]. Moreover, the Drug uptake in [6] is given as 2.48%. Moreover, in series [8], the Emax was found to be 63%. Further, the fold change (FC) was found to be 0.62 in [9] and 0.77 in series [17]. In addition, the result with Mus musculus [15] was Active.
